Experimental data published in US8093209B2, “Methods of suppressing microglial activation and systemic inflammatory responses” (Cognosci, Incorporated, priority 2002, dated 2012).

Tests used:
[1] = test system: enriched microglia primary cultures from apoE deficient mouse pups; assay: LPS-stimulated nitric oxide (nitrite) secretion by enriched microglia primary cultures; format: cell-based; conditions: peptide 0 μM to 1000 μM, LPS 100 ng/ml, after 48 hours
Description: Culture preparation and characterization: Mixed glial cell cultures were prepared from: (a) wildtype (C57B16; Jackson Laboratories) mouse pups; (b) ApoE deficient mutant mouse pups (ApoE-deficient mice), and (c) transgenic mouse pups expressing human ApoE3 but not murine ApoE (ApoE3 mice). See Xu et al., Neurobiol. Dis. 3:229 (1996) regarding the creation and characterization of the transgenic mice. Mixed glial cell cultures were prepared as has been described. See McMillian et al., Neurochem. 58:1308 (1992); Laskowitz et al., J. Neuroimmunol. 76:70 (1997). Briefly, brains were removed from 2-4 day old pups, cleaned of membranes and blood vessels, mechanically dispersed in Ca^+2-free media, and collected by centrifugation. Cells were then plated in DMEM/F12 (containing 10% fetal calf serum, 1% penicillin/streptomycin, Gibco #15070), one brain per 25 cm flask. […]
Nitrite Quantification The production of NO was assessed by measuring the accumulation of nitrite, which was quantified using a calorimetric reaction with Griess reagent (0.1% N-1-naphthylethylenediamine dihydrochloride, 1% sulfanilamide, and 2.5% H3PO4). Absorbance was measured at 570 nm by spectrophotometry. […]
Enriched microglia primary cultures were prepared from the brains of apoE deficient mouse pups as described in Example 1, above. […] Nitric oxide production was assessed as described in Example 1. […]

[2] = test system: primary hippocampal neurons; conditions: cited from earlier work

In the case of “LRKLRKRLL LRKLRKRLL (LRKLRKRLLLRKLRKRLL; fragment of ApoE containing LDL receptor binding site) [SEQ ID NO:3]”, the “nitric oxide secretion by activated microglia” value [1] is listed as “dose-dependent decrease in nitric oxide secretion” and the neuronal cell death [2] is listed as “induced neuronal cell death”.
